Assay results taken from patent publication US12162959B2, “Cyclic peptide for treating cancer” (Saint Leo University, priority 2018, dated 2024).
Where a SMILES comes first, the peptide text is derived from it.

Assays:
[1] = test system: MRC-9 normal embryonic lung fibroblasts
Description: (§1) Cells were incubated post-transfection for a duration of two doubling periods and assessed for viability by using a cell proliferetion CCK-8 assay.
(§2) IC50 values were calculated form obtained equations that describe cell viability as a function of peptide concentration.

[2] = test system: HMEC primary mammary epithelial cells
Description: (§3) Breast adenocarcinoma (MDA-MB468), ductal carcinoma (BT-549), and primary mammary epithelial (HMEC) cells were transfected with 1.25 μM, 2.5 μM, 5.0 μM, or 20.0 μM of peptide 7N by using Pierce Protein Transfection reagent. Cells were incubated post-transfection for a duration of two doubling periods and assessed for viability by using a cell proliferetion CCK-8 assay.
as §2

[3] = test system: Human recombinant CMG helicase; assay: In vitro CMG helicase activity assay with Y-shaped oligonucleotide substrate; assay type: biochemical; settings: about 5 nM CMG helicase, 1.0, 2.0 or 5.0 nM peptide, 0.5 mM ATP, 37° C. 45 minutes; FIG. 1A/1B
Description: Human recombinant CMG helicase was co-incubated with Peptide 7N (amide cyclic of SEQ ID NO: 1) peptide in the 1-5 nM range and subjected to an in vitro activity assay with Y-shaped oligonucleotides as a substrate.
About 5 nM of CMG helicase was pre-incubated with 1.0, 2.0, or 5.0 nM of Peptide 7N peptide for 20 minutes on ice. In vitro helicase reactions containing partially annealed Y-shaped oligonucleotides as substrate were fired by the addition of 0.5 mM ATP as described previously (Kang Y H et al. PNAS, 2012, 109(16), p. 6042-6047). Reactions were incubated at 37° C. for 45 minutes, stopped with 4 μL of 6× stop solution, and separated by 10% PAGE. To visualize DNA bands, the gel was stained using SYBR Gold nucleic acid stain. Densities of single-stranded DNA bands were quantified by using Image Lab software, and normalized against control.

[4] = test system: SVG p12 immortalized normal astroglia cells
Description: as §1, §2

[5] = test system: hTERT-HPNE immortalized normal pancreatic cells
Description: as §1, §2

[6] = test system: THLE-3 immortalized normal liver cells
Description: (§4) Hepatocellular carcinoma (Hep3B and Hep-G2) and immortalized normal liver (THLE-3) cells were transfected with 1.25 μM, 2.5 μM, 5.0 μM, or 20.0 μM of peptide 7N by using Pierce Protein Transfection reagent. Cells were incubated post-transfection for a duration of two doubling periods and assessed for viability by using a cell proliferetion CCK-8 assay.
as §2

Description for BT-549 cells: as §3, §2
Description for H596 cells: as §1, §2
Description for HLF-a cells: as §1, §2
Description for Hep-G2 cells: as §4, §2
Description for Hep3B cells: as §4, §2
Description for Hs 766T cells: as §1, §2
Description for M059J cells: as §1, §2
Description for M059K cells: as §1, §2
Description for MDA-MB468 cells: as §3, §2
Description for NTERA-2 cells: Pierce Protein Transfection reagent (Thermo Scientific, 89850) was used to deliver peptide to the cultured cells. Transfected cells were allowed to go through two division cycles (48 hours) port-transfection, after which amounts of alive cells were determined by using a colorimetric CCK-8 assay (Dojindo Molecular Technologies, Inc.).
Human embryonal testicular carcinoma cells (NTERA-2 from ATCC #CRL-1973) were transfected with 1-10 μM Peptide 7N for 4.0 hours, incubated in a complete media for 48 hours, and assessed for viability by using a CCK-8 colorimetric assay.
as §2
Description for PANC-1 cells: as §1, §2
Description for SW480 cells: (§5) Colorectal adenocarcinoma cells (SW480 and SW620) were transfected with 1.25 μM, 2.5 μM, 5.0 μM, or 20.0 μM of peptide 7N by using Pierce Protein Transfection reagent. Cells were incubated post-transfection for a duration of two doubling periods and assessed for viability by using a cell proliferetion CCK-8 assay.
as §2
Description for SW620 cells: as §5, §2

CSCC[C@@H]1NC(=O)[C@H](CCC(N)=O)NC(=O)[C@H](CC(C)C)NC(=O)[C@H](C(C)C)NC(=O)[C@H](CCC(=O)O)NC(=O)CNC(=O)[C@H](CCCCN)NC(=O)[C@H](C(C)C)NC(=O)[C@H](CC(C)C)NC(=O)[C@H](CC(=O)O)NC(=O)[C@H](CC(=O)O)NC(=O)[C@H](CCC(=O)O)NC1=O [Peptide 7N, Lys-Gly-Glu-Val-Leu-Gln-Met-Glu-Asp-Asp-Leu-Val] (cyclo(KGEVLQMEDDLV))
IC50 [1]: 162 µM
Effect on normal lung fibroblasts (result in words) ([1]; MRC-9, 1.25-20.0 μM peptide, CCK-8, FIG. 3): sparing
IC50 [2]: 134 µM
Effect on normal mammary epithelial cells (result in words) ([2]; HMEC, 1.25-20.0 μM peptide, CCK-8, FIG. 7): sparing
IC50 (BT-549 cells): 18.3 µM
Proliferation of breast cancer cells (result in words) (BT-549 cells; BT-549, 1.25-20.0 μM peptide, CCK-8, FIG. 7): decreases proliferation
IC50 (MDA-MB468 cells): 17.1 µM
Proliferation of breast cancer cells (result in words) (MDA-MB468 cells; MDA-MB468, 1.25-20.0 μM peptide, CCK-8, FIG. 7): decreases proliferation
IC50 (M059K cells): 16.1 µM
Proliferation of brain glioma cells (result in words) (M059K cells; M059K, 1.25-20.0 μM peptide, CCK-8, FIG. 6): decreased proliferation
Inhibition of CMG helicase (density of single-stranded DNA bands normalized against control) [3]: inhibited CMG helicase in a robust dose-dependent manner
IC50 (Hep-G2 cells): 16.7 µM
Proliferation of liver carcinoma cells (result in words) (Hep-G2 cells; Hep-G2, 1.25-20.0 μM peptide, CCK-8, FIG. 4): decreased proliferation
IC50 [4]: 271 µM
Effect on immortalized normal astroglia cells (result in words) ([4]; SVG p12, 1.25-20.0 μM peptide, CCK-8, FIG. 6): sparing
IC50 [5]: 1050 µM
Effect on immortalized normal pancreatic cells (result in words) ([5]; hTERT-HPNE, 1.25-20.0 μM peptide, CCK-8, FIG. 5): sparing
IC50 (Hep3B cells): 14.1 µM
Proliferation of liver carcinoma cells (result in words) (Hep3B cells; Hep3B, 1.25-20.0 μM peptide, CCK-8, FIG. 4): decreased proliferation
IC50 (Hs 766T cells): 18.1 µM
Proliferation of pancreatic carcinoma cells (result in words) (Hs 766T cells; Hs 766T, 1.25-20.0 μM peptide, CCK-8, FIG. 5): decreased proliferation
IC50 (H596 cells): 12.2 µM
Proliferation of lung carcinoma cells (result in words) (H596 cells; H596, 1.25-20.0 μM peptide, CCK-8, FIG. 3): decreased proliferation
IC50 (SW480 cells): 21.8 µM
Proliferation of colorectal cancer cells (result in words) (SW480 cells; SW480, 1.25-20.0 μM peptide, CCK-8, FIG. 8): decreased proliferation
IC50 (M059J cells): 15.4 µM
Proliferation of brain glioma cells (result in words) (M059J cells; M059J, 1.25-20.0 μM peptide, CCK-8, FIG. 6): decreased proliferation
IC50 [6]: 722 µM
Effect on immortalized normal liver cells (result in words) ([6]; THLE-3, 1.25-20.0 μM peptide, CCK-8, FIG. 4): sparing
IC50 (PANC-1 cells): 24.6 µM
Proliferation of pancreatic carcinoma cells (result in words) (PANC-1 cells; PANC-1, 1.25-20.0 μM peptide, CCK-8, FIG. 5): decreased proliferation
IC50 (NTERA-2 cells; 48 h): 7 µM
Proliferation/viability of NTERA-2 cells (NTERA-2 cells; transfected with 1-10 μM peptide for 4.0 hours, 48 hours in complete media, CCK-8, FIG. 2): effectively inhibited proliferation
IC50 (HLF-a cells): 14.4 µM
Proliferation of lung carcinoma cells (result in words) (HLF-a cells; HLF-a, 1.25-20.0 μM peptide, CCK-8, FIG. 3): decreased proliferation
IC50 (SW620 cells): 22 µM
Proliferation of colorectal cancer cells (result in words) (SW620 cells; SW620, 1.25-20.0 μM peptide, CCK-8, FIG. 8): decreased proliferation
